Columns and labels:
[1] = Solubility of FDCA in water as a function of magnesium chloride concentration; assay type: physicochemical; settings: magnesium chloride solutions in water, stirred 24 h at 21.8° C. and 48.8° C., filtrate analysed by HPLC; values only in FIG. 3
Experimental: Magnesium chloride solutions in water were prepared by dissolving magnesium chloride hexahydrate in water. To each solution (30 g) solid FDCA was added and the mixture was stirred for 24 h at 21.8° C. After stirring a sample was taken and filtered by means of a 0.45 micron filter. The clear filtrate was analysed on FDCA content by means of HPLC. The experiment was repeated at 48.8° C.

[2] = Saturation concentration of MgFDC solution; assay type: physicochemical; settings: solution at 20° C., as anhydrate
Experimental: The HCl was added over a period of about 1 hour and the final pH was 1.5. […] The solid FDCA was filtered off and washed with water. The concentration of 4 wt. % was chosen as it is the saturation concentration at 20° C.

| saturation concentration [2] [wt. %] | Compound | solubility of FDCA [1] |
| --- | --- | --- |
|  | O=C(O)c1ccc(C(=O)O)o1 [FDCA, furan-2,5-dicarboxylic acid] | depends strongly on temperature and on the concentration of magnesium chloride |
| 4 | O=C([O-])c1ccc(C(=O)[O-])o1.[Mg+2] [MgFDC, magnesium furan-2,5-dicarboxylate] |  |
